In patent US20130296391A1, “PLANT DISEASE CONTROLLING COMPOSITION AND METHOD FOR CONTROLLING PLANT DISEASE” (SUMITOMO CHEMICAL COMPANY, LIMITED, priority 2010, published 2013):

Test system: gray mold fungus (Botrytis cinerea)
Assay: cucumber leaf disk test against gray mold fungus, preventive value
Assay type: in vivo
Details: single compound, 15° C., four days
Method: True leaf of cucumber was punched out with cork borer to 13 mm in diameter to prepare a leaf disk. In 24 well microwell plate that was dispensed with 1 ml 0:8% water agar, the leaf disk was placed such that the upper side of the leaf was in an upward direction. Thereto was added 20 micro liter a testing solution prepared by mixing a dimethyl sulfoxide solution of the present amide compound and a dimethyl sulfoxide solution of benomyl or carbendazim to a predetermined concentration to treat the leaf disk.
After confirming that the testing medical solution was dried, conidium of gray mold fungus (Botrytis cinerea) was suspended into potato dextrose broth (DIFCO) in a density of about 10^5 conidia/mL and was then subjected to a spray inoculation. After leaving to stand the leaf disk in a growth chamber set up at 15° C. for four days, an onset area on each leaf was measured and then calculated an onset area rate (hereinafter, referred to as an onset area rate belonging to treated group).
The same operation was carried out with 20 micro liter water instead of 20 micro liter the testing medicine solution to calculate an onset area rate (hereinafter, referred to an onset area rate belonging to non-treated group).
A preventive value was calculated from the above onset area rate belonging to treated group and the onset area rate belonging to non-treated group by the following equation:
Preventive value(%)=100×(A−B)/A
A: an onset area rate belonging to non-treated group
B: an onset area rate belonging to treated group
onset area rate=(onset area of the leaf disk)/(the total area of the leaf disk)
For comparison, the same operations as described in Test Examples 1 to 4 were carried out except that the testing medicine solution was substituted with predetermined concentration of a dimethyl sulfoxide solution of benomyl or carbendazim, so as to calculate a preventive value.

[1] = treatment concentration 0.5 ppm
[2] = treatment concentration 5.0 ppm

Row | Structure (SMILES) | preventive value (%) [1] [%] | preventive value (%) [2] [%] | preventive value (%) (treatment concentration 1.0 ppm) | preventive value (%) (treatment concentration 2.5 ppm)
1 | COC(=O)Nc1nc2ccccc2[nH]1 [carbendazim] | 45 | 55.5 | – | –
2 | CCCCNC(=O)n1c(NC(=O)OC)nc2ccccc21 [benomyl] | 47.5 | 56.5 | – | –
3 | CNC(=O)C(OC)c1ccccc1COc1cc(C)ccc1C (stereo not drawn) [the present amide compound] | – | – | 46 | 55.5
